One data set concerns HCT-116. The data set can be described thus: Cytotoxicity against human HCT116 cells. The class given is functional, cell-based.
A short description of data set [1]: Inhibition of NF-kappaB expressed in human HEK293 cells by luciferase reporter gene based luminometric analysis. Type of data set: cell-based. (Reporter assays use an easily measured gene product as a stand-in for the process of interest.)
The subject of data set [2] is RAW264.7. The data set can be described thus: Inhibition of iNOS in mouse RAW264.7 cells assessed as inhibition of LPS-induced nitrite production at 100 uM treated 30 mins before LPS challenge measured after 24 hrs by Griess method. The class given is functional. In general terms: Nitrite, measured by Griess reagent, commonly stands in for NO production.
The test system of data set [3] is RAW264.7. The data set can be described thus: Inhibition of iNOS in mouse RAW264.7 cells assessed as inhibition of LPS-induced nitrite production treated 30 mins before LPS challenge measured after 24 hrs by Griess method. The class given is functional, cell-based.
The test system of data set [4] is RAW264.7. The data set can be described thus: Inhibition of iNOS in mouse RAW264.7 cells assessed as inhibition of LPS-induced nitrite production at 50 uM treated 30 mins before LPS challenge measured after 24 hrs by Griess method. The class given is functional.
Data set [5] deals with NAD(P)H dehydrogenase [quinone] 1 (Mus musculus) (UniProt Q64669). The conditions noted are these: Hepa-1c1c7.
Chain of NAD(P)H dehydrogenase [quinone] 1 (Mus musculus) (Q64669 whole entry): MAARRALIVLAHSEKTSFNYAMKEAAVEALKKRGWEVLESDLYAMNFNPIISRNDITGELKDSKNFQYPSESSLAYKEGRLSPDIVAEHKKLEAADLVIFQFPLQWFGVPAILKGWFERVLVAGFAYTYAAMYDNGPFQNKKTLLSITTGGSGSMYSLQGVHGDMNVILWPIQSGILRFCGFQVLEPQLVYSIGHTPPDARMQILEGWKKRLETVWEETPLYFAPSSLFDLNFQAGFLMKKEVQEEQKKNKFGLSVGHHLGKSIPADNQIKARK
A short description of data set [6]: Cytotoxicity against mouse Hepa-1c1c7 cells at 50 uM after 48 hrs by crystal violet staining. The class given is cell-based. The conditions noted are these: hepa-1c1c7, 48 h.
In data set [7] the target is T1, Ribosyldihydronicotinamide dehydrogenase [quinone] (Homo sapiens, UniProt P16083).
T1 sequence (P16083 whole entry): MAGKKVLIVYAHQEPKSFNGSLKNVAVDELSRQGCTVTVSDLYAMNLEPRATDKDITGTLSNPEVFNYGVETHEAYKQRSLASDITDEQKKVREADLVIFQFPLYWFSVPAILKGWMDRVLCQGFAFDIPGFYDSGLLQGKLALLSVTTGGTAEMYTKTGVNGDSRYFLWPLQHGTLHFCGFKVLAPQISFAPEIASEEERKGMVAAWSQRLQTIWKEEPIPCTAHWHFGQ
The data set can be described thus: Inhibition of human QR2 expressed in Escherichia coli BL21 (DE3) using MTT and NMeH as substrate assessed as formazan formation.

A further data set in a line: cells. The conditions noted are these: Mus musculus, Hepa-1c1c7, 48 h.

Broadly, the IC50 is the concentration that inhibits the measured activity by half. For orientation: inhibition means the drop in the measured response relative to a control, in per cent. As to `Oc1c(Br)ccc2nc3ccccc3nc12`, the results for the IC50 (with HCT-116; in data set [1]) were 100 nM and 73 µM, respectively. Besides, the inhibition at 100 µM with RAW264.7 [2] was determined as 31.5%.

In the case of `Oc1ccc(Br)c2nc3ccccc3nc12`, the IC50 was 5.19 µM in data set [1] and 31.5 µM in the data set with RAW264.7 [3]. Moreover, the inhibition at 50 µM with RAW264.7 [4] was 84.7%.

Turning to `Oc1cccc2nc3cc(Cl)c(Cl)cc3nc12`, the IC50 in the data set on RAW264.7 [3] was 47.2 µM. Moreover, the inhibition at 50 µM in the data set on RAW264.7 [4] amounted to 51.2%. The same compound had a CD in data set [5] of 1.85 µM.

With `Oc1c(Br)cc(Br)c2nc3ccccc3nc12`, the IC50 with RAW264.7 [3] turned out to be 4.2 µM. For the same compound, the inhibition at 50 µM in the data set with RAW264.7 [4] came out at 70.9%. Moreover, the CD in [5] is 27 µM.

For `O=[N+]([O-])c1cc(Br)c2nc3ccccc3nc2c1`, the values for the 50% inhibitory concentration (IC50) (in data set [1]; in the data set with RAW264.7 [3]) were 13.1 µM and 7.2 µM, respectively. In addition, the inhibition at 50 µM in the data set on RAW264.7 [4] was determined as 79.7%.

`COc1cc(Br)c(Br)c2nc3ccccc3nc12`: in the data set on RAW264.7 [3], the IC50 turned out to be 33.7 µM. Moreover, the inhibition at 50 µM in the data set on RAW264.7 [4] was determined as 70.9%.

Regarding `Brc1cc(Br)c2nc3ccccc3nc2c1`, the inhibition at 50 µM in the data set on RAW264.7 [4] was 16.4%.

In data set [5], `CS/C(S)=N/CCCC[S+](C)[O-]` (centres undefined) gave a CD of 0.26 µM.

As for `Cc1nc2cc3ccccc3cc2nc1C`, the Activity entry in data set [6] is listed as “Toxic”. Also, the inhibition at 50 µM in the data set with RAW264.7 [4] was 3.4%. In data set [5], this compound returned a CD of 16.6 µM.

As for `Cc1nc2cccc(O)c2nc1C`, in [6], the Activity result is listed as “Toxic”. The inhibition at 50 µM with RAW264.7 [4] was determined as 0%.

Take `COc1ccc(Br)c2nc3cc(C)c(C)cc3nc12`: the IC50 in [1] is 17 µM; in the data set on RAW264.7 [3], 48.9 µM. The inhibition at 50 µM in the data set with RAW264.7 [4] was found to be 51.9%. This compound also yielded a CD in data set [5] of 1.83 µM.

As for `Oc1cc(Br)c(Br)c2nc3ccccc3nc12`, the values for the IC50 (in data set [1]; in the data set on RAW264.7 [3]) were 4.74 µM and 17.4 µM, respectively. The inhibition at 50 µM with RAW264.7 [4] was 79.2%.

Regarding `COc1ccc2nc3ccccc3nc2c1`, the inhibition at 50 µM in the data set on RAW264.7 [4] came to 12.5%.

As to `COc1c(Br)cc(Br)c2nc3ccccc3nc12`, in the data set with RAW264.7 [4], the inhibition at 50 µM was determined as 24.7%.

Consider `COc1cc(Br)cc2nc3ccccc3nc12`, for which, in the data set on RAW264.7 [3], the IC50 stood at 26.5 µM. For the same compound, the inhibition at 50 µM in the data set with RAW264.7 [4] is 68.6%.

For `c1ccc2cc3nc4ccccc4nc3cc2c1` [BENZO[B]PHENAZINE], the Activity result in data set [6] is “Toxic”. Moreover, the half-inhibitory concentration (IC50) in data set [1] stood at 2.48 µM; in the data set with RAW264.7 [3], 5.9 µM. For the same compound, the inhibition at 50 µM in the data set on RAW264.7 [4] worked out at 98.7%. Besides, the CD in data set [5] was 4.39 µM.

With `COc1cccc2nc(C)c(C)nc12`, the inhibition at 50 µM in the data set with RAW264.7 [4] is 0.8%.

As for `Cc1ccc2nc3ccccc3nc2c1`, the inhibition at 50 µM with RAW264.7 [4] is 38.7%.

Take `Cc1cc2nc3ccccc3nc2cc1C`: it took 9.15 µM to reach half-maximal inhibition in data set [1] (IC50). Moreover, the inhibition at 50 µM in the data set on RAW264.7 [4] is 49.1%. In [5], the CD was found to be 23 µM.

For `COc1cccc2nc3ccccc3nc12`, the inhibition at 50 µM with RAW264.7 [4] was found to be 2.4%.

For the compound `COc1ccc(Br)c2nc3ccccc3nc12`, the inhibition at 50 µM with RAW264.7 [4] was 47.5%. In data set [5], this compound had a CD of 4.3 µM.

Take `Cc1nc2c(Br)cc(Br)c(O)c2nc1C`: the results for the IC50 (in [7]; in data set [1]; with RAW264.7 [3]) were 2900 nM, 1.93 µM and 45.6 µM, respectively. The inhibition at 50 µM in the data set on RAW264.7 [4] is 81.3%.

With `COc1ccc(OC)c2nc3ccccc3nc12`, the inhibition at 50 µM in the data set with RAW264.7 [4] worked out at 5%.

`COc1cccc2nc3cc(C)c(C)cc3nc12`: in the data set on RAW264.7 [3], the IC50 was 47 µM. For the same compound, the inhibition at 50 µM in the data set with RAW264.7 [4] is 53.8%. This compound had a CD in [5] of 11.3 µM.

As for `COc1c(Br)ccc2nc3ccccc3nc12`, in the data set on RAW264.7 [4], the inhibition at 50 µM turned out to be 44.7%. This compound came in with a CD in data set [5] of 29.4 µM.

In turn, `COc1cc(Br)cc2nc3cc(Cl)c(Cl)cc3nc12` showed an IC50 in data set [1] of 2.46 µM. For the same compound, the inhibition at 50 µM with RAW264.7 [4] was 0%. Also, the CD in data set [5] came out at 0.012 µM.

As to `Cc1cc(Br)cc2nc3ccccc3nc12`, the inhibition at 50 µM in the data set with RAW264.7 [4] came out at 5.5%.

For `COc1cc2nc3ccccc3nc2cc1OC`, the inhibition at 50 µM in the data set on RAW264.7 [4] was found to be 29.4%.

On to `COc1cccc2nc3cc(Cl)c(Cl)cc3nc12`, for which the IC50 in data set [1] came to 16.2 µM. The inhibition at 50 µM in the data set on RAW264.7 [4] is 14.6%. Also, the CD in data set [5] was found to be 9.42 µM.

For the compound `C[S+]([O-])CCCCN=C=S` (centres undefined), the CD in [5] stood at 0.23 µM.

In the case of `COc1cc(Br)c(Br)c2nc3cc(C)c(C)cc3nc12`, the IC50 in data set [1] was determined as 1.39 µM; in the data set with RAW264.7 [3], 34.5 µM. For the same compound, the inhibition at 50 µM in the data set on RAW264.7 [4] is 77.7%.

With `COc1cccc2nc3cc4ccccc4cc3nc12`, the IC50 is 2.1 µM in data set [1], 7.2 µM with RAW264.7 [3] and 9.58 µM in “cells”. In [5], the CD was determined as 0.0047 µM.

With `Oc1cc(Br)cc2nc3ccccc3nc12`, the IC50 is 5.42 µM in [1] and 28.4 µM in the data set with RAW264.7 [3]. In addition, the inhibition at 50 µM in the data set with RAW264.7 [4] was determined as 86.5%.

In the case of `COc1cc(Br)cc2nc3cc(C)c(C)cc3nc12`, in [1], the IC50 was found to be 6.64 µM. Besides, the inhibition at 50 µM in the data set on RAW264.7 [4] came out at 8.8%.

These data come from ChEMBL document CHEMBL1800051 (J Med Chem, 2010).
